{
  "source": "patent US20070224200A1",
  "about": "“Gm3 Synthase as a Therapeutic Target in Microvascular Complications of Diabetes” (priority 2004, published 2007)",
  "key": {"[1]": {"system": "mesangial cells (RMC)", "experiment": "Treatment with exogenous gangliosides, proliferation of mesangial cells", "format": "cell-based, rat", "settings": "50 μM, 4 days, total proteins", "experimental": "(§1) To evaluate the effect of exogenous gangliosides on the proliferation of BRP and RMC, the cells were cultivated in 96-well plates. Exogenous glycolipids GM3, GM2, GM1 and GD1a, glucosylceramide and lactosylceramide (Matreya) were added to the complete culture medium in a final concentration of 50 μM in the form of complexes with BSA in a 1:1 ratio in DMEM/10 mM Hepes, pH 7.4. At the end of the treatment, the cells were washed twice with PBS and lysed for 30 minutes at 37° C. in 50 μl of a Ripa lysis buffer (PBS 10 mM, NP40 1% (Pierce, Perbio Science, Brebières, France), sodium deoxycholate 0.5%, SDS 0.1%, protease inhibitors 10 μl/ml). As the number of cells in our experiments was correlated with the total protein concentrations (cf. FIG. 1), the total proteins were measured using the BCA protein test (Pierce) in order to evaluate the cell proliferation."}, "[2]": {"system": "pericytes (BRP)", "experiment": "Treatment with exogenous gangliosides, proliferation of pericytes", "format": "cell-based, bovine", "settings": "50 μM, 7 days, total proteins", "experimental": "as §1"}, "[3]": {"system": "renal mesangial cells (RMC)", "experiment": "AGE effect on proliferation of renal mesangial cells (cell count, total proteins)", "format": "cell-based, rat", "settings": "3 μM AGE, 4 days", "excerpt": "Rat renal mesangial cells (RMC) were obtained from purified glomeruli of young male Wistar rats (Charles River, l'Arbresle, France). Briefly, cortex fragments were isolated from rat kidneys freshly removed under sterile conditions. Small pieces were mechanically forced through a 230 μm mesh with HBSS buffer. The glomeruli, passed through this mesh, were then forced through a 73.7 μm mesh. Finally, they were placed on a 70 μm mesh and placed in 6 cm dishes covered with fibronectin (4 dishes for 2 renal glomeruli) in DMEM supplemented with 20% of foetal bovine serum, 1% of glutamine and 1% of penicillin/streptomycin. After the attachment period, the excrescence of RMC from glomeruli occurred after three weeks and the cells were then cultivated to the fifth passage in order to remove the residual epithelial and endothelial cells. The RMC are characterised by morphological criteria (star shape, wick shape when they are confluent) and by positive labelling with vimentin, smooth muscle α-actin and Thy-1 antigen. […]\n(§2) At the end of the treatment, the cells were harvested with trypsin and the cell residues were washed twice with a phosphate buffered saline solution (iced PBS) (Sigma). For each sample, one aliquot of cells was counted using a haemocytometer in order to determine the number of cells. […]"}, "[4]": {"system": "GM3 synthase", "experiment": "GM3 synthase activity in homogenates of mesangial cells treated with AGE", "format": "cell-based, rat", "settings": "3 μM AGE, 4 days, vs BSA control", "experimental": "(§3) The AGE and the BSA control (final concentration of 3 μM) were added to the culture medium 24 hours after inoculation. Each cell type was treated for one passage (about 7 days for the BRP and 4 days for the RMC). The culture medium was replaced with a fresh medium every two days.\n(§4) At the end of the treatment, the cells were washed with PBS, incubated for 20 minutes at 4° C. in 50 μl of lysis buffer (20 mM sodium cacodylate, pH 6.6 (Sigma), 0.2% of Triton X-100, 1 mM EDTA, 10 μl/ml of protease inhibitors, Calbiochem, La Jolla, Calif., United States) and then collected by scraping. Four dishes of BRP (about 2-3×10^6 cells) and three dishes of RMC (about 3-6×10^6 cells) were pooled. The cell lysates were centrifuged at 10,000 g for 5 minutes and the proteins in the supernatants were used to measure the GM3 synthase activity. The glomerular residues were mechanically homogenised with a syringe in 25 mM Hepes containing 1 mM EDTA and 10 μl/ml of protease inhibitors. The homogenates were then centrifuged at 1000 g for 2 minutes and the postnuclear supernatant was used to measure the GM3 synthase activity. Equivalent amounts of proteins for each sample (about 500 μg for the cells and 100 μg for the glomeruli) were used to perform the test. […]"}, "[5]": {"system": "GM3 synthase", "experiment": "GM3 synthase activity in homogenates of pericytes treated with AGE", "format": "cell-based, bovine", "settings": "3 μM AGE, 7 days, vs BSA control", "experimental": "as §3, §4"}, "[6]": {"system": "pericytes (BRP)", "experiment": "AGE effect on proliferation of pericytes (cell count, total proteins)", "format": "cell-based, bovine", "settings": "3 μM AGE, 7 days", "excerpt": "Bovine retinal pericytes (BRP) were isolated from bovine retinal micro-vessels as described previously (Lecomte et al., 1996). Briefly, the retinas were obtained by dissection under sterile conditions from enucleated bovine eyes obtained from a local abattoir. After the contaminating pigmented epithelial cells of the retina had been removed, the retinas (2 per culture dish) were sliced into small pieces and homogenised in a Dounce homogeniser in a Hanks balanced saline solution (Ca^2+/Mg^2+-free oxygenated HBSS supplemented with Hepes 10 mM, pH 7.4, antibiotics 1%, bovine serum albumin (BSA, Sigma, Saint-Quentin Fallavier, France) 0.5%). […] The BRP cultures were 100% pure, as characterised by their polygonal irregular morphology with pseudopodia and their growth into non-apposed cells, and as evaluated by positive labelling for both α1-actin and a specific glycolipid antigen (3G5 antibody) and by negative labelling for the von Willebrand factor expressed in the endothelial cells (Lecomte et al., 1996). […]\nas §2"}, "[7]": {"system": "gangliosides in pericytes (BRP)", "experiment": "Ganglioside profile in pericytes treated with AGE (HPTLC)", "format": "cell-based, bovine", "settings": "3 μM AGE", "experimental": "as §3\n(§5) For metabolic labelling of the gangliosides, 0.2 μCi/ml or 1 μCi/ml of [^14C(U)]-D-galactose (329.5 mCi/mmol) (PerkinElmer Life Sciences, Boston, Mass.) was added to the culture medium overnight for the labelling experiments with a high specific activity (GM2 and GM1 measuring experiment). The cells (5-8×10^5 pericytes or 12-20×10^5 mesangial cells) were then harvested by trypsinisation and washed three times in PBS. The gangliosides were extracted from the cell residues by the method described by Bouchon et al. (Bouchon et al., 1990), modified by Natalizio et al. (Natalizio et al., 2002). Briefly, the cell residues were dispersed in 2 ml of chloroform (C)/methanol (M) (1:1, v/v), mixed vigorously and extracted overnight at 4° C. After centrifugation, the residues were extracted twice with 2 ml of the same solvent. The pooled extracts of total lipids were dried by evaporation and separated with the aid of a 1 mM C/M/PBS solution (10:10:7, v/v/v). The upper phases, containing the gangliosides, were then desalted on a C18 silica gel column (Waters Corporation, Milford, Mass.) and analysed by HPTLC (Merck, Darnstadt, Germany). The plates were developed in 0.2% C/M/CaCl2 (55:45:10, v/v/v). The gangliosides were visualised by autoradiography using a phosphorus screen and a Storm 820 (Molecular Dynamics, Amersham Pharmacia Biotech, Piscataway, United States) and by labelling with resorcinol (specific stain for gangliosides: resorcinol 0.3% (Sigma), CuSO4 0.03%, HCl 30%) using an Image Master VDS-CL (Amersham Pharmacia Biotech). Quantification was performed using an Image Quant (Molecular Dynamics). As GT1b was absent from the ganglioside profiles of both the BRP and the RMC, it was added to the samples as an internal standard prior to lipid extraction."}, "[8]": {"system": "gangliosides in mesangial cells (RMC)", "experiment": "Ganglioside profile in mesangial cells treated with AGE (HPTLC)", "format": "cell-based, rat", "settings": "3 μM AGE, resorcinol staining", "experimental": "as §3, §5"}, "[9]": {"system": "RMC", "experiment": "Proliferation of siRNA-transfected RMC treated with AGE", "format": "cell-based, rat", "settings": "400 nM siRNA, then 3 μM AGE 3 days, total proteins", "experimental": "To block the GM3 synthase activity, RMC were cultivated in 6-well culture plates up to 30% confluence and then transfected with an interfering RNA (siRNA) specific for GM3 synthase, which was designed against a rat cDNA sequence (Ambion, Huntingdon, UK) using an Oligofectamine reagent (Invitrogen Corporation). The GM3 synthase antisense sequence used was GGGUUAUUCUGAACAUGUUtt (SEQ ID No: 5). In preliminary experiments, a dose-response study was carried out by transfecting the cells with increasing concentrations of siRNA (0-800 nM). After 72 h of transfection, the GM3 synthase activity was measured on homogenates of transfected cells. The proliferation was then evaluated on the cells transfected with the siRNA. For this purpose, 24 hours after transfection with 400 nM siRNA, the cells were treated with 3 μM BSA control or AGE (3 days). The cells were then washed twice with PBS and lysed in a Ripa lysis buffer and the proteins were measured in order to evaluate the cell proliferation."}, "[10]": {"system": "GM3 synthase", "experiment": "GM3 synthase activity in RMC transfected with GM3 synthase siRNA", "format": "cell-based, rat", "experimental": "as §4, with “inhibitors.” for “inhibitors. The homogenates were then centrifuged at 1000 g for 2 minutes and the postnuclear supernatant was used to measure the GM3 synthase activity. Equivalent amounts of proteins for each sample (about 500 μg for the cells and 100 μg for the glomeruli) were used to perform the test.”\nTo block the GM3 synthase activity, RMC were cultivated in 6-well culture plates up to 30% confluence and then transfected with an interfering RNA (siRNA) specific for GM3 synthase, which was designed against a rat cDNA sequence (Ambion, Huntingdon, UK) using an Oligofectamine reagent (Invitrogen Corporation). […] After 72 h of transfection, the GM3 synthase activity was measured on homogenates of transfected cells. The proliferation was then evaluated on the cells transfected with the siRNA. […] The cells were then washed twice with PBS and lysed in a Ripa lysis buffer and the proteins were measured in order to evaluate the cell proliferation."}, "[11]": {"settings": "pericytes, resorcinol staining, vs BSA control"}},
  "data": [
    {"substance": "lactosylceramide", "values": [
      {"measurement": "effect on proliferation of mesangial cells (in words)", "setting": "[1]", "result": "no effect"},
      {"measurement": "effect on proliferation of pericytes (in words)", "setting": "[2]", "result": "no effect"}
    ]},
    {"substance": "α-N-acetyl-neuraminyl-2,3-β-D-galactosyl-1,4-β-D-glucosylceramide [GM3]", "values": [
      {"measurement": "effect on proliferation of mesangial cells (in words)", "setting": "[1]", "result": "no significant effect"},
      {"measurement": "effect on proliferation of pericytes (in words)", "setting": "[2]", "result": "weakly inhibited"}
    ]},
    {"substance": "AGE: prepared by incubating bovine serum albumin with 100 mM methylglyoxal at 37° C. for 50 hours", "values": [
      {"measurement": "reduction of the number of mesangial cells", "setting": "[3]; cell count, vs BSA control", "result": 40, "unit": "%"},
      {"measurement": "total proteins", "setting": "[3]; mesangial cells", "result": "decreased in correlation with the number of cells"},
      {"measurement": "increase of GM3 synthase activity (factor)", "setting": "[4]", "result": "about 1.5"},
      {"measurement": "increase of GM3 synthase activity (factor)", "setting": "[5]", "result": "about 1.8"},
      {"measurement": "reduction of the number of pericytes", "setting": "[6]; cell count, vs BSA control", "result": 33, "unit": "%"},
      {"measurement": "total proteins", "setting": "[6]; pericytes", "result": "decreased in correlation with the number of cells"},
      {"measurement": "increase in GM2", "setting": "[7]; BRP, [14C]-D-galactose labelling, autoradiography", "result": 55, "unit": "%"},
      {"measurement": "increase in series a ganglioside GM1", "setting": "[7]; [11]", "result": "about 40%"},
      {"measurement": "increase in series a ganglioside GM3", "setting": "[7]; [11]", "result": "about 40%"},
      {"measurement": "reduction of series b ganglioside GD3", "setting": "[7]; [11]", "result": 24, "unit": "%"},
      {"measurement": "GD1a levels", "setting": "[8]", "result": "not affected"},
      {"measurement": "increase in GM3", "setting": "[8]; vs BSA control", "result": 33, "unit": "%"},
      {"measurement": "reduction of GD3", "setting": "[8]; vs BSA control", "result": 30, "unit": "%"}
    ]},
    {"substance": "GGGUUAUUCUGAACAUGUUtt (guide GGGUUAUUCUGAACAUGUUTT; chemistry not given here) [GM3 synthase siRNA]", "values": [
      {"measurement": "effects of AGE on the proliferation of the RMC", "setting": "[9]", "result": "partially inhibited"},
      {"measurement": "inhibition of GM3 synthase activity", "setting": "[10]; RMC transfected with siRNA", "result": 50, "unit": "%"},
      {"measurement": "inhibition of GM3 synthase activity (in words)", "setting": "[10]; RMC, preliminary experiments, siRNA 0-800 nM, 72 h", "result": "effectively inhibited"}
    ]},
    {"substance": "glucosylceramide", "values": [
      {"measurement": "effect on proliferation of mesangial cells (in words)", "setting": "[1]", "result": "no effect"},
      {"measurement": "effect on proliferation of pericytes (in words)", "setting": "[2]", "result": "no effect"}
    ]}
  ]
}
